Changes are numbered by the printed parent chain. Like-named read-outs stand apart in the source and are kept apart here.
Key:
CpomOrco+OR3 = target: T1, CpomOrco+OR3 (Cydia pomonella, UniProt H9A5M3); test: Calcium imaging of HEK293T cells co-expressing CpomOrco and CpomOR3, pear ester stimulation; type: cell-based
T1 sequence (H9A5M3 1-426): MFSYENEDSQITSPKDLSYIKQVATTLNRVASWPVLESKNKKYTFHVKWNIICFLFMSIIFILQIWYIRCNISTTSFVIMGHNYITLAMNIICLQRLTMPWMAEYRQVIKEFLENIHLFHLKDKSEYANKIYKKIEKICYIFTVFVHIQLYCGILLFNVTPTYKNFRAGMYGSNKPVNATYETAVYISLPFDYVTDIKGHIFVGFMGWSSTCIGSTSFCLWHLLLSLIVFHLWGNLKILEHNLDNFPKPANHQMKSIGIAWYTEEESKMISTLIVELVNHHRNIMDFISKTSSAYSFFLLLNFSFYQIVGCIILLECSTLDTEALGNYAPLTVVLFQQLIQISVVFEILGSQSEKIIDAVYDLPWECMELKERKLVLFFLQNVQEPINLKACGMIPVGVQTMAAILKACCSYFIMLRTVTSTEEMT
T1 sequence (H9A5M2 1-473 partner): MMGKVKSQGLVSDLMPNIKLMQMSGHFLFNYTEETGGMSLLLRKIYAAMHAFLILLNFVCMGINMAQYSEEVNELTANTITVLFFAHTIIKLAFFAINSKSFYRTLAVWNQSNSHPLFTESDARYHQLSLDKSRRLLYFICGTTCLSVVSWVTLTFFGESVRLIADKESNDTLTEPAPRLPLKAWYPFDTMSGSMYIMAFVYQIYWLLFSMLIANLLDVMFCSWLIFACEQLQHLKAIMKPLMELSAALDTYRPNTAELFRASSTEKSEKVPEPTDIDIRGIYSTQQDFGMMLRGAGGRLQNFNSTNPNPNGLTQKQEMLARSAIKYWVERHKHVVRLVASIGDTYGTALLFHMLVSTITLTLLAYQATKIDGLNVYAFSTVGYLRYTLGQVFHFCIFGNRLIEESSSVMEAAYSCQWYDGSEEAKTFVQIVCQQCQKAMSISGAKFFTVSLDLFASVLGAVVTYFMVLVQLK
Protocol: (§1) HEK293 cells lines (HEK293A/HEK293T) were grown in HEK cell media [Dulbecco's modified Eagle's medium containing 10% fetal bovine serum (MP Biomedicals, Solon, OH, USA), 2.0 mM L-glutamine, and 100 µg/mL penicillin/streptomycin (Invitrogen)] at 37 °C and 5% CO2. To test transient expression of wild type CpomOrco and CpomOrco^Q417H variant for calcium imaging and patch-clamp recording, 35-mm petri dishes containing semi-confluent HEK293A cells were transiently transfected. Cells were transfected with 0.6 µg of pcDNA40-DEST carrying the coding sequence of the CpomOrco variant (depending on the experiments). To report expression for calcium imaging experiments, 0.6 µg of a separate plasmid DNA [pEBFP2-Nuc, a gift from Robert Campbell (Addgene plasmid # 1489352)] carrying the coding sequence for a blue fluorescent protein (EBFP) was co-transfected. To report expression in patch-clamp recordings, 1.0 µg of a separate plasmid DNA (pXOOM, Clontech, Mountain View, CA, USA) carrying the coding sequence for a green fluorescent protein (GFP) was co-transfected. Expressions of fluorescent reporter genes were under the regulation of the same promoter for Cpom-genes (CMV). For specific experiments, co-transfections were conducted combining an additional 1.2 µg of pcDNA40-DEST/CpomOR3 or pcDNA40-DEST/CpomOR6a, as we previously described. Co-transfections with CpomOR3 were performed for dose–response experiments to pear ester: CpomOR3 was co-expressed with CpomOrco variants by the use of HEK293T (Fig. 3b); given the reported functional co-expression data of the CpomOrco + OR3 heteromers by the use of these specific cells. In brief, transfection DNAs were dissolved in 100 µL sterile DMEM, mixed with 3.0 µL Calfectin (SignaGen, Rockville, MD, USA) following the recommended protocol. Transfections were conducted overnight for up to 18 h, HEK cell media was replaced with 2.0 mL fresh media to incubate cells at 37 °C for up to 6–8 h, at which point part of the cell culture was spread in the middle of a 35-mm plate as individual cells or small clusters and rinsed at the sides with 2.0 mL fresh HEK media. After splitting, cells were allowed to recover for at least 1 day prior to calcium imaging. […]
(§2) Fluorescence imaging was performed using settings optimized for Imaging Workbench 6 software (INDEC BioSystems, Santa Clara, CA, USA)[14]. […] Each cell was assigned a region of interest (ROI) and changes in fluorescence intensity within each ROI were measured and expressed as the fractional change in fluorescence intensity (dF). Stored time series image stacks were analysed off-line using Imaging Workbench 6, Clampfit 10.5 (Molecular Devices) and SigmaPlot 11 (Systat Software Inc., San Jose, CA, USA). […]

CpomOrco^Q417H+OR3 = target: T2, CpomOrco^Q417H+OR3 (Cydia pomonella, UniProt H9A5M3); test: Calcium imaging of HEK293T cells co-expressing CpomOrco^Q417H and CpomOR3, pear ester stimulation; type: cell-based
T2 construct: variant as stated: Q417H
T2 sequence (H9A5M3 1-426): T1 sequence (H9A5M3 1-426)
T2 sequence (H9A5M2 1-473 Q417H partner): T1 sequence (H9A5M2 1-473 partner) with Q417H
Protocol: as §1, §2

SMILES: CCCCC/C=C\C=C\C(=O)OCC [pear ester, ethyl (E,Z)-2,4 decadienoate]
- Hill coefficient (cooperativity coefficient h) (CpomOrco+OR3): ~ 4.6
- EC50 (CpomOrco+OR3; Hill fit): ~210 µM
- maximum response (Hill fit of calcium response amplitudes) (CpomOrco+OR3; N = 160 cells): ~ 6.6 ± 0.3 ∆F
- Hill coefficient (cooperativity coefficient h) (CpomOrco+OR3; listed as Pear ester): ~ 4.6 ± 2.4
- Hill coefficient (cooperativity coefficient h) (CpomOrco^Q417H+OR3): ~ 4.6
- EC50 (CpomOrco^Q417H+OR3; Hill fit): ~733 µM
- maximum response (Hill fit of calcium response amplitudes) (CpomOrco^Q417H+OR3; N = 262 cells): ~3.7 ± 0.1 ∆F
- Hill coefficient (cooperativity coefficient h) (CpomOrco^Q417H+OR3; listed as Pear ester): ~ 4.6 ± 0.4

From PMC7887336, “Altered functional properties of the codling moth Orco mutagenized in the intracellular loop-3” (Scientific Reports, 2021)
